{"source": "paper PMC10364322", "about": "“Evaluation of chronic drug-induced electrophysiological and cytotoxic effects using human-induced pluripotent stem cell-derived cardiomyocytes (hiPSC-CMs)” (Frontiers in Pharmacology, 2023)", "tested_on": "hiPSC-CMs (iCell-Cardiomyocytes^2)", "in_short": "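Spontaneous field potentials and impedance recorded by MEA at 37°C, 5% CO2 in hiPSC-CM monolayers (50 K/well, fibronectin-coated), 5-min baseline before compound; final DMSO 0.1%. Values are percent change from baseline, mean ± SD, compared with DMSO by Wilcoxon-Mann Whitney, interpreted against DMSO tolerance intervals.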", "note": "Where two headings read alike, the source gives them in different places.", "data": [{"smiles": "CCN(CC)CCNC(=O)c1c(C)[nH]c(/C=C2\\C(=O)Nc3ccc(F)cc32)c1C", "note": "[Sunitinib]", "values": [{"measurement": "BR (beating rate), % change from baseline", "setting": "0.03 µM, 2h", "result": "0±2", "unit": "%"}, {"measurement": "FPD (field-potential duration), % change from baseline", "setting": "0.03 µM, 2h", "result": "5.5±1.5", "unit": "%"}, {"measurement": "FPDc (field-potential duration corrected by beat-rate), % change from baseline", "setting": "0.03 µM, 2h", "result": "5.3±1.7", "unit": "%"}, {"measurement": "BR (beating rate), % change from baseline", "setting": "0.03 µM, 24h", "result": "-2±3", "unit": "%"}, {"measurement": "FPD (field-potential duration), % change from baseline", "setting": "0.03 µM, 24h", "result": "11±4.2", "unit": "%"}, {"measurement": "FPDc (field-potential duration corrected by beat-rate), % change from baseline", "setting": "0.03 µM, 24h", "result": "10.1±3.1", "unit": "%"}, {"measurement": "BR (beating rate), % change from baseline", "setting": "0.03 µM, 48h", "result": "-13±2", "unit": "%"}, {"measurement": "FPD (field-potential duration), % change from baseline", "setting": "0.03 µM, 48h", "result": "20.5±2.7", "unit": "%"}, {"measurement": "FPDc (field-potential duration corrected by beat-rate), % change from baseline", "setting": "0.03 µM, 48h", "result": "14.9±1.9", "unit": "%"}, {"measurement": "BR (beating rate), % change from baseline", "setting": "0.03 µM, 72h", "result": "-10±2", "unit": "%"}, {"measurement": "FPD (field-potential duration), % change from baseline", "setting": "0.03 µM, 72h", "result": "19.2±2", "unit": "%"}, {"measurement": "FPDc (field-potential duration corrected by beat-rate), % change from baseline", "setting": "0.03 µM, 72h", "result": "15±1.8", "unit": "%"}, {"measurement": "BR (beating rate), % change from baseline", "setting": "0.03 µM, 96h", "result": "-18±1", "unit": "%"}, {"measurement": "FPD (field-potential duration), % change from baseline", "setting": "0.03 µM, 96h", "result": "27.4±1.8", "unit": "%"}, {"measurement": "FPDc (field-potential duration corrected by beat-rate), % change from baseline", "setting": "0.03 µM, 96h", "result": "19.3±1.7", "unit": "%"}, {"measurement": "BR (beating rate), % change from baseline", "setting": "0.1 µM, 2h", "result": "-5±1", "unit": "%"}, {"measurement": "FPD (field-potential duration), % change from baseline", "setting": "0.1 µM, 2h", "result": "12.2±1.2", "unit": "%"}, {"measurement": "FPDc (field-potential duration corrected by beat-rate), % change from baseline", "setting": "0.1 µM, 2h", "result": "10.3±1", "unit": "%"}, {"measurement": "BR (beating rate), % change from baseline", "setting": "0.1 µM, 24h", "result": "-8±4", "unit": "%"}, {"measurement": "FPD (field-potential duration), % change from baseline", "setting": "0.1 µM, 24h", "result": "25.6±6.7", "unit": "%"}, {"measurement": "FPDc (field-potential duration corrected by beat-rate), % change from baseline", "setting": "0.1 µM, 24h", "result": "21.9±5", "unit": "%"}, {"measurement": "BR (beating rate), % change from baseline", "setting": "0.1 µM, 48h", "result": "-19±2", "unit": "%"}, {"measurement": "FPD (field-potential duration), % change from baseline", "setting": "0.1 µM, 48h", "result": "35.8±4.6", "unit": "%"}, {"measurement": "FPDc (field-potential duration corrected by beat-rate), % change from baseline", "setting": "0.1 µM, 48h", "result": "26.3±3.6", "unit": "%"}, {"measurement": "BR (beating rate), % change from baseline", "setting": "0.1 µM, 72h", "result": "-17±2", "unit": "%"}, {"measurement": "FPD (field-potential duration), % change from baseline", "setting": "0.1 µM, 72h", "result": "36.3±3.3", "unit": "%"}, {"measurement": "FPDc (field-potential duration corrected by beat-rate), % change from baseline", "setting": "0.1 µM, 72h", "result": "28.2±2.6", "unit": "%"}, {"measurement": "BR (beating rate), % change from baseline", "setting": "0.1 µM, 96h", "result": "-24±1", "unit": "%"}, {"measurement": "FPD (field-potential duration), % change from baseline", "setting": "0.1 µM, 96h", "result": "49±7.7", "unit": "%"}, {"measurement": "FPDc (field-potential duration corrected by beat-rate), % change from baseline", "setting": "0.1 µM, 96h", "result": "36.1±6.4", "unit": "%"}, {"measurement": "time point from which EAD-like events occurred", "setting": "0.3 µM", "result": 24, "unit": "h"}, {"measurement": "BR (beating rate), % change from baseline", "setting": "0.3 µM, 2h", "result": "-15±2", "unit": "%"}, {"measurement": "FPD (field-potential duration), % change from baseline", "setting": "0.3 µM, 2h", "result": "32.5±1.7", "unit": "%"}, {"measurement": "FPDc (field-potential duration corrected by beat-rate), % change from baseline", "setting": "0.3 µM, 2h", "result": "25.4±1.4", "unit": "%"}, {"measurement": "BR (beating rate), % change from baseline", "setting": "0.3 µM, 24h", "result": "-29±5", "unit": "%"}, {"measurement": "FPD (field-potential duration), % change from baseline", "setting": "0.3 µM, 24h", "result": "103.1±24.2", "unit": "%"}, {"measurement": "FPDc (field-potential duration corrected by beat-rate), % change from baseline", "setting": "0.3 µM, 24h", "result": "80.7±18.4", "unit": "%"}, {"measurement": "BR (beating rate), % change from baseline", "setting": "0.3 µM, 48h", "result": "-39±4", "unit": "%"}, {"measurement": "FPD (field-potential duration), % change from baseline", "setting": "0.3 µM, 48h", "result": "120.5±24.7", "unit": "%"}, {"measurement": "FPDc (field-potential duration corrected by beat-rate), % change from baseline", "setting": "0.3 µM, 48h", "result": "87.2±17.5", "unit": "%"}, {"measurement": "BR (beating rate), % change from baseline", "setting": "0.3 µM, 72h", "result": "-38±1", "unit": "%"}, {"measurement": "FPD (field-potential duration), % change from baseline", "setting": "0.3 µM, 72h", "result": "135.9±4.7", "unit": "%"}, {"measurement": "FPDc (field-potential duration corrected by beat-rate), % change from baseline", "setting": "0.3 µM, 72h", "result": "101±3.5", "unit": "%"}, {"measurement": "BR (beating rate), % change from baseline", "setting": "0.3 µM, 96h", "result": "-44±2", "unit": "%"}, {"measurement": "FPD (field-potential duration), % change from baseline", "setting": "0.3 µM, 96h", "result": "152.4±12.3", "unit": "%"}, {"measurement": "FPDc (field-potential duration corrected by beat-rate), % change from baseline", "setting": "0.3 µM, 96h", "result": "108.1±8", "unit": "%"}, {"measurement": "BR (beating rate), % change from baseline", "setting": "1 µM, 2h", "result": "-49±4", "unit": "%"}, {"measurement": "FPD (field-potential duration), % change from baseline", "setting": "1 µM, 2h", "result": "182.8±8.5", "unit": "%"}, {"measurement": "FPDc (field-potential duration corrected by beat-rate), % change from baseline", "setting": "1 µM, 2h", "result": "128.9±4.9", "unit": "%"}, {"measurement": "BR (beating rate), % change from baseline", "setting": "1 µM, 24h", "result": "-67±3", "unit": "%"}, {"measurement": "BR (beating rate), % change from baseline", "setting": "1 µM, 48h", "result": "-68±4", "unit": "%"}, {"measurement": "BR (beating rate), % change from baseline", "setting": "1 µM, 72h", "result": "-70±0", "unit": "%"}]}]}
